Measured values reported in ChEMBL document CHEMBL1921767, “Facile synthesis of new 4-aza-podophyllotoxin analogs via microwave-assisted multi-component reactions and evaluation of their cytotoxic activity” (Bioorg Med Chem Lett, 2011).
≈ marks a conversion by molar mass, not a printed value.

Assays:
Format in all cases: functional, cell-based
M14 = experiment: Cytotoxicity against human M14 cells after 24 hrs by MTT assay; conditions: M14, 24 h
MCF7 = experiment: Cytotoxicity against human MCF7 cells after 24 hrs by MTT assay; conditions: MCF7, 24 h
[1] = Cytotoxicity against human SW1116 cells after 24 hrs by MTT assay; conditions: SW 1116, 24 h

| SMILES | IC50 (M14) [µg/mL] | IC50 (MCF7) [µg/mL] | IC50 [1] [µg/mL] |
| --- | --- | --- | --- |
| Cc1nc2c3c(ccc2s1)NC1=C(C(=O)OC1)C3c1ccc(Br)cc1 (racemic) | 167 (≈ 405 µM) | 748 (≈ 1810 µM) | 257 (≈ 623 µM) |
| Cc1nc2c3c(ccc2s1)NC1=C(C(=O)OC1)C3c1cccc([N+](=O)[O-])c1 (racemic) | 77.9 (≈ 205 µM) | 151 (≈ 399 µM) | 26 (≈ 68.5 µM) |
| Cc1nc2c3c(ccc2s1)NC1=C(C(=O)OC1)C3c1ccc([N+](=O)[O-])cc1 (racemic) | > 1000 | > 1000 | > 1000 |
| Cc1nc2c3c(ccc2s1)NC1=C(C(=O)OC1)C3c1ccccc1 (racemic) | > 1000 | > 1000 | 156 (≈ 466 µM) |
| Cc1ccc(C2C3=C(COC3=O)Nc3ccc4sc(C)nc4c32)cc1 (racemic) | 225 (≈ 645 µM) | 25.7 (≈ 73.7 µM) | 122 (≈ 350 µM) |
| COc1ccc(C2C3=C(COC3=O)Nc3ccc4sc(C)nc4c32)cc1 (racemic) | 508 (≈ 1390 µM) |  | > 1000 |
| Cc1nc2c3c(ccc2s1)NC1=C(C(=O)OC1)C3c1ccc(Cl)cc1Cl (racemic) | > 1000 | 539 (≈ 1340 µM) |  |
| Cc1nc2c3c(ccc2s1)NC1=C(C(=O)OC1)C3c1ccc(O)c([N+](=O)[O-])c1 (racemic) | 33.9 (≈ 85.7 µM) | 56 (≈ 142 µM) | 69.4 (≈ 176 µM) |
| COc1cc(C2C3=C(COC3=O)Nc3ccc4sc(C)nc4c32)cc(OC)c1OC (racemic) | > 1000 | 686 (≈ 1620 µM) | 383 (≈ 903 µM) |
